The test system of test [1] is C. albicans CAI4 (IFM 61937). The protocol:
(§1) Seven microbial strains were used for OsAFP1 antimicrobial activity testing. P. gingivalis ATCC 33277 cells were cultured in modified Gifu anaerobic medium (GAM) (Nissui, Tokyo, Japan) in an anaerobic jar (Mitsubishi Gas Chemical, Tokyo, Japan) in the presence of a deoxygenating regent (AnaeroPack, Mitsubishi Gas Chemical) for 48 h at 37 °C. E. coli K-12 NBRC3301, S. mutans JCM 5705, S. aureus NBRC 12732, and P. acnes JCM 6473 cells were cultured in Luria-Bertani (LB) broth, brain-heart infusion broth (Nissui), trypticase soy broth (BD Biosciences, Franklin Lakes, NJ, USA), and GAM broth (Nissui), respectively, under facultative anaerobic conditions for 4–24 h at 37 °C. C. albicans CAI4 (IFM 61937) cells were cultured in 0.5 × potato dextrose broth (PDB) supplemented with 25 μg/ml of uridine under facultative anaerobic conditions for 14 h at 30 °C. S. cerevisiae BY4742 and S288C cells were cultured in 0.5 × PDB supplemented with 30 μg/ml of uridine, histidine, and lysine and 60 μg/ml of leucine under facultative anaerobic conditions for 14 h at 27 °C. These microbial strains were purchased from the American Type Culture Collection (Manassas, VA, USA), National Institute of Technology and Evaluation (Tokyo, Japan), RIKEN BioResource Center (Tsukuba, Japan), Medical Mycology Research Center (Chiba, Japan), and GE Healthcare (Little Chalfont, UK).
Antifungal assays to determine the MIC of OsAFP1 were performed as follows. Fungal cells (1 × 10^5 cells) were suspended in 100 μl of the appropriate medium containing 0–32 μM OsAFP1 in 96-well Costar cell culture plates. After incubation, OD650 was measured using a plate reader. […] In those cases, the cultures were plated on agar plates (0.5 × PDB), and the peptide concentration at which viable cell numbers were 1% or less than that in the control culture was considered the MIC. GraphPad Prism version 6.00 for Macintosh (GraphPad Software, La Jolla, CA, USA) was used to calculate IC50 values. Experiments were independently repeated at least three times. Detailed growth conditions for each fungus are provided in the “Microorganisms and culture conditions” section above.

For test [2], the system named is Saccharomyces cerevisiae BY4742. In words: Antifungal assay (growth inhibition, OD650). It is filed as cell-based. To be noted: S. cerevisiae BY4742; 0.5 × PDB with supplements, 27 °C, 14 h; MIC = >99% reduction of OD650. How it is done: as §1, with “These microbial strains were purchased from the American Type Culture Collection (Manassas, VA, USA), National Institute of Technology and Evaluation (Tokyo, Japan), RIKEN BioResource Center (Tsukuba, Japan), Medical Mycology Research Center (Chiba, Japan), and GE Healthcare (Little Chalfont, UK).” left out
(§2) Antifungal assays to determine the MIC of OsAFP1 were performed as follows. […] After incubation, OD650 was measured using a plate reader. […]

Test [3] has as its system Saccharomyces cerevisiae S288C. In words: Antifungal assay (growth inhibition, OD650). The format is cell-based. Particulars: S. cerevisiae S288C; 0.5 × PDB with supplements, 27 °C, 14 h; MIC = >99% reduction of OD650. How it is done: as §1, with “These microbial strains were purchased from the American Type Culture Collection (Manassas, VA, USA), National Institute of Technology and Evaluation (Tokyo, Japan), RIKEN BioResource Center (Tsukuba, Japan), Medical Mycology Research Center (Chiba, Japan), and GE Healthcare (Little Chalfont, UK).” left out
as §2

Test [4] concerns Escherichia coli K-12. The test is described as follows: Antibacterial assay (BacTiter-Glo ATP luminescence). It is filed as cell-based. To be noted: E. coli K-12; LB broth, 37 °C; 0–32 μM; MIC = >99% reduction of ATP luminescence. The protocol:
as §1
(§3) Recombinant OsAFP1 and its mutants used in this study were prepared as described in “Supplementary Information”. Antibacterial assays to determine the MIC of OsAFP1 were performed using a modified BacTiter-Glo Luminescent cell viability assay kit (Promega, Madison, WI, USA). This assay quantifies ATP in bacterial cultures to determine the number of live cells. All procedures were performed following the manufacturer’s instructions. Briefly, bacterial cells (1 × 10^4 cells/ml) were cultured in 100 μl of the appropriate medium (as specified in the “Microorganisms and culture conditions” section) in the presence of 0–32 μM OsAFP1 in 96-well Costar cell culture plates. After appropriate incubation for 4–40 h, 10 μl of Lucifell ATP-eliminating reagent (Kikkoman, Chiba, Japan) was added to each well to reduce medium-derived ATP and mixed for 10 min using an orbital shaker. The cell culture (50 μl) was mixed gently with BacTiter-Glo reagent (50 μl) in a well of white Optiplate-96 plates. After incubation for 15 s, luminescence at 560 nm was measured using a plate reader. MIC was defined as the minimum concentration of OsAFP1 that reduced the sample ATP luminescence by >99% compared with that of the control culture. Experiments were independently repeated at least three times.

Test [5] deals with Porphyromonas gingivalis ATCC 33277. The description is as above. It is filed as cell-based. Particulars: P. gingivalis ATCC 33277; modified GAM, anaerobic, 37 °C; 0–32 μM; MIC = >99% reduction of ATP luminescence. The protocol: as §1, §3
Test [6] has as its system Propionibacterium acnes JCM 6473. Described as above. It is filed as cell-based. Particulars: P. acnes JCM 6473; GAM broth, 37 °C; 0–32 μM; MIC = >99% reduction of ATP luminescence. The protocol: as §1, §3
The subject of test [7] is Staphylococcus aureus subsp. aureus NBRC 12732. The test is described as above. It is filed as cell-based. Particulars: S. aureus NBRC 12732; trypticase soy broth, 37 °C; 0–32 μM; MIC = >99% reduction of ATP luminescence. The protocol: as §1, §3
Test [8] deals with Streptococcus mutans JCM 5705. The description is as above. Particulars: S. mutans JCM 5705; brain-heart infusion broth, 37 °C; 0–32 μM; MIC = >99% reduction of ATP luminescence. It is filed as cell-based. How it is done: as §1, §3
Test [9] concerns C. albicans CAI4 cells. In words: Fungicidal assay (CFU time course). The format is cell-based, Candida albicans. Particulars: 16 μM (4 × MIC), 30 °C, CFU count, n = 3. How it is done: C. albicans CAI4 cells (2 × 10^5 cells/ml) were treated with OsAFP1 and incubated at 30 °C for 0, 0.17, 0.5, 1, 2, and 4 h. After being washed three times with KPB, the cells were plated on agar plates (0.5 × PDB). Calculated CFUs in the plate were used as indicators of viable cells. […] Therefore, in the present assay, 4 × MIC concentration was used, because long-term OsAFP1 treatment may produce various undesirable effects other than fungicidal activity and make the assay difficult to interpret. 4 × MIC concentration was also applied in the subsequent annexin V assay and ICC staining analysis.

Test [10] deals with C. albicans CAI4 cells. In words: Annexin V assay (apoptosis, epifluorescence microscopy). Particulars: 16 μM (4 × MIC), 30 °C, 0.5 h; epifluorescence microscope. It is filed as cell-based, Candida albicans. The protocol: After being washed three times with KPB, the cells were resuspended in 500 μl of 1 × binding buffer and mixed with 5 μl each of annexin V-FITC and PI reagent (BioVision, Mountain View, CA, USA). The mixtures were incubated at room temperature in the dark for 5 min, and the cells were then observed under a TE2000-S epifluorescence microscope (Nikon, Tokyo, Japan) equipped with an appropriate objective lens [CFI Plan Fluor 100 × oil (Nikon)] and bandpass filters with 542 nm excitation and 620 nm emission for PI and 494 nm excitation and 518 nm emission for FITC.

As a reminder, the MIC is the smallest concentration in the dilution series that meets the test's criterion for growth inhibition.

Where no end group is shown, it is not given here.

For “OsAFP1: rice defensin (Os02g41904, UniProtKB Q6K209); recombinant mature peptide produced in E. coli, four disulphide bonds (RHCLSQSHRFKGMCVSSNNCANVCRTESFPDGECKSHGLERKCFCKKVC; disulfide (positions not given here); UniProt Q6K209 32-80, looked up)”, the MIC in test [1] (C. albicans CAI4, 1 × 10^5 cells in 100 μl 0.5 × PDB + 25 μg/ml uridine, 30 °C, 14 h, 0–32 μM, MIC = >99% reduction of OD650, repeated at least three times) is 4 µM; in test [2], 4 µM; in test [3], 16 µM; in [4], over 32 µM; in [5], over 32 µM; in test [6] it was over 32 µM. Further, the MIC in [7] and in test [8] was over 32 µM throughout. Besides, the IC50 in test [1] (read-out: half maximal inhibitory concentration (IC50), C. albicans CAI4 growth, OD650, GraphPad Prism, wild-type OsAFP1 (Fig. 1a)) turned out to be 2000 nM. The “C. albicans cells died” value is reported as “about 50%” in test [9] (30 min) and “almost all cells died” in [9] (4 h). Moreover, the “annexin V-FITC fluorescence (early apoptosis)” value in test [10] was “almost all fungal cells emitted fluorescence”.

The values above are taken from paper PMC6065317, “Rice Defensin OsAFP1 is a New Drug Candidate against Human Pathogenic Fungi” (Scientific Reports, 2018).
